Assay results from ChEMBL document CHEMBL3774387, “Synthesis and anticancer evaluation of spermatinamine analogues” (Bioorg Med Chem Lett, 2016).
pIC50: −log10 of the molar value.

What was measured:
[1] = Cytotoxicity against human DU145 cells assessed as growth inhibition at 25 uM after 24 hrs by MTT assay (reference value: 1.2 to 7.8%); assay type: functional; conditions: DU-145, 24 h, read-out: GI
HeLa [2] = assay: Cytotoxicity against human HeLa cells assessed as viable cells after 48 hrs by MTT assay; assay type: functional, cell-based
[3] = Cytotoxicity against human DU145 cells assessed as viable cells after 48 hrs by MTT assay; assay type: functional, cell-based; conditions: DU-145, 48 h
HeLa [4] = assay: Cytotoxicity against human HeLa cells assessed as viable cells after 24 hrs by MTT assay; assay type: functional, cell-based
[5] = Cytotoxicity against human DU145 cells assessed as growth inhibition at 2.5 uM after 24 hrs by MTT assay (reference value: 1.2 to 7.8%); assay type: functional; conditions: DU-145, 24 h, read-out: GI
HeLa [6] = assay: Cytotoxicity against human HeLa cells assessed as growth inhibition at 2.5 uM after 24 hrs by MTT assay (reference value: 0 to 4.4%); assay type: functional; conditions: read-out: GI
[7] = Cytotoxicity against human DU145 cells assessed as viable cells after 24 hrs by MTT assay; assay type: functional, cell-based; conditions: DU-145, 24 h
HeLa [8] = assay: Cytotoxicity against human HeLa cells assessed as growth inhibition at 5 uM after 24 hrs by MTT assay (reference value: 0 to 4.4%); assay type: functional; conditions: read-out: GI
MCF7 [9] = assay: Cytotoxicity against human MCF7 cells assessed as growth inhibition at 1.25 uM after 24 hrs by MTT assay (reference value: 2.7 to 9.3%); assay type: functional; conditions: MCF7, 24 h, read-out: GI
MCF7 [10] = assay: Cytotoxicity against human MCF7 cells assessed as growth inhibition at 50 uM after 24 hrs by MTT assay (reference value: 2.7 to 9.3%); assay type: functional; conditions: MCF7, 24 h, read-out: GI
[11] = Cytotoxicity against human DU145 cells assessed as growth inhibition at 5 uM after 24 hrs by MTT assay (reference value: 1.2 to 7.8%); assay type: functional; conditions: DU-145, 24 h, read-out: GI
MCF7 [12] = assay: Cytotoxicity against human MCF7 cells assessed as growth inhibition at 5 uM after 24 hrs by MTT assay (reference value: 2.7 to 9.3%); assay type: functional; conditions: MCF7, 24 h, read-out: GI
HeLa [13] = assay: Cytotoxicity against human HeLa cells assessed as growth inhibition at 50 uM after 24 hrs by MTT assay (reference value: 0 to 4.4%); assay type: functional; conditions: read-out: GI
[14] = Cytotoxicity against human DU145 cells assessed as growth inhibition at 10 uM after 24 hrs by MTT assay (reference value: 1.2 to 7.8%); assay type: functional; conditions: DU-145, 24 h, read-out: GI
MCF7 [15] = assay: Cytotoxicity against human MCF7 cells assessed as growth inhibition at 10 uM after 24 hrs by MTT assay (reference value: 2.7 to 9.3%); assay type: functional; conditions: MCF7, 24 h, read-out: GI
HeLa [16] = assay: Cytotoxicity against human HeLa cells assessed as growth inhibition at 1.25 uM after 24 hrs by MTT assay (reference value: 0 to 4.4%); assay type: functional; conditions: read-out: GI
MCF7 [17] = assay: Cytotoxicity against human MCF7 cells assessed as growth inhibition at 100 uM after 24 hrs by MTT assay (reference value: 2.7 to 9.3%); assay type: functional; conditions: MCF7, 24 h, read-out: GI
MCF7 [18] = assay: Cytotoxicity against human MCF7 cells assessed as growth inhibition at 25 uM after 24 hrs by MTT assay (reference value: 2.7 to 9.3%); assay type: functional; conditions: MCF7, 24 h, read-out: GI
MCF7 [19] = assay: Cytotoxicity against human MCF7 cells assessed as viable cells after 48 hrs by MTT assay; assay type: functional, cell-based; conditions: MCF7, 48 h
[20] = Cytotoxicity against human DU145 cells assessed as growth inhibition at 1.25 uM after 24 hrs by MTT assay (reference value: 1.2 to 7.8%); assay type: functional; conditions: DU-145, 24 h, read-out: GI
MCF7 [21] = assay: Cytotoxicity against human MCF7 cells assessed as growth inhibition at 2.5 uM after 24 hrs by MTT assay (reference value: 2.7 to 9.3%); assay type: functional; conditions: MCF7, 24 h, read-out: GI
[22] = Cytotoxicity against human DU145 cells assessed as growth inhibition at 50 uM after 24 hrs by MTT assay (reference value: 1.2 to 7.8%); assay type: functional; conditions: DU-145, 24 h, read-out: GI
MCF7 [23] = assay: Cytotoxicity against human MCF7 cells assessed as viable cells after 24 hrs by MTT assay; assay type: functional, cell-based; conditions: MCF7, 24 h
[24] = Cytotoxicity against human DU145 cells assessed as growth inhibition at 100 uM after 24 hrs by MTT assay (reference value: 1.2 to 7.8%); assay type: functional; conditions: DU-145, 24 h, read-out: GI
HeLa [25] = assay: Cytotoxicity against human HeLa cells assessed as growth inhibition at 10 uM after 24 hrs by MTT assay (reference value: 0 to 4.4%); assay type: functional; conditions: read-out: GI
HeLa [26] = assay: Cytotoxicity against human HeLa cells assessed as growth inhibition at 100 uM after 24 hrs by MTT assay (reference value: 0 to 4.4%); assay type: functional; conditions: read-out: GI
HeLa [27] = assay: Cytotoxicity against human HeLa cells assessed as growth inhibition at 25 uM after 24 hrs by MTT assay (reference value: 0 to 4.4%); assay type: functional; conditions: read-out: GI
[28] = Cytotoxicity against human DU145 cells assessed as viable cells after 24 hrs by Solid plate-based spot culture growth inhibition assay; assay type: functional, cell-based; conditions: DU-145, 24 h
MCF7 [29] = assay: Cytotoxicity against human MCF7 cells assessed as viable cells after 24 hrs by Solid plate-based spot culture growth inhibition assay; assay type: functional, cell-based; conditions: MCF7, 24 h
HeLa [30] = assay: Cytotoxicity against human HeLa cells assessed as growth inhibition at 5 uM by MTT assay; assay type: functional, cell-based; conditions: TDE = time-dependent effect
HeLa [31] = assay: Cytotoxicity against human HeLa cells assessed as growth inhibition at 5 uM after 48 hrs by MTT assay; assay type: functional; conditions: read-out: GI

Compound | inhibition of growth at 25 µM [1] | pIC50 (HeLa [2]) | pIC50 [3] | pIC50 (HeLa [4]) | inhibition of growth at 2.5 µM [5] | inhibition of growth at 2.5 µM (HeLa [6]) | pIC50 [7] | inhibition of growth at 5 µM (HeLa [8]) | inhibition of growth at 1.25 µM (MCF7 [9]) | inhibition of growth at 50 µM (MCF7 [10]) | inhibition of growth at 5 µM [11] | inhibition of growth at 5 µM (MCF7 [12]) | inhibition of growth at 50 µM (HeLa [13]) | inhibition of growth at 10 µM [14] | inhibition of growth at 10 µM (MCF7 [15]) | inhibition of growth at 1.25 µM (HeLa [16]) | inhibition of growth at 100 µM (MCF7 [17]) | inhibition of growth at 25 µM (MCF7 [18]) | pIC50 (MCF7 [19]) | pIC50 (MCF7 [23]) | other results
COc1c(Br)cc(C/C(=N\OCc2ccccc2)C(=O)NCCCNCCCCNCCCNC(=O)/C(Cc2cc(Br)c(OC)c(Br)c2)=N/OCc2ccccc2)cc1Br | 98.6% | 5.54 | 5.34 | 5.40 | 24.4% | 23.5% | 5.40 | 93.5% | 19.2% | 97.7% | 68.2% | 58.6% | 96.9% | 98.5% | 98.9% | 0% | 96.4% | 97.6% | 5.47 | 5.35 | inhibition of growth at 1.25 µM [20]: 15.5%; inhibition of growth at 2.5 µM (MCF7 [21]): 30%; inhibition of growth at 50 µM [22]: 98.4%; inhibition of growth at 100 µM [24]: 97.3%; inhibition of growth at 10 µM (HeLa [25]): 98.3%; inhibition of growth at 100 µM (HeLa [26]): 94.7%
COc1c(Br)cc(C/C(=N\OCc2ccccc2)C(=O)NCCNCCNC(=O)/C(Cc2cc(Br)c(OC)c(Br)c2)=N/OCc2ccccc2)cc1Br |  | < 4.00 | < 4.00 | < 4.00 |  |  | < 4.00 |  |  |  |  |  |  |  |  |  |  |  | < 4.00 | < 4.00 | 
CO/N=C(\Cc1cc(Br)c(OC)c(Br)c1)C(=O)NCCCNCCCCNCCCNC(=O)/C(Cc1cc(Br)c(OC)c(Br)c1)=N/OC | 55% | 4.60 | 4.56 | 4.58 | 24.1% | 0% | 4.58 | 0% | 15.4% | 98.4% | 26.1% | 22.3% | 97.8% | 34.3% | 33.1% | 0% | 98.1% | 55.5% | 4.72 | 4.61 | inhibition of growth at 25 µM (HeLa [27]): 70.4%; inhibition of growth at 1.25 µM [20]: 24.6%; inhibition of growth at 2.5 µM (MCF7 [21]): 20.8%; inhibition of growth at 50 µM [22]: 99.2%; inhibition of growth at 100 µM [24]: 98.7%; inhibition of growth at 10 µM (HeLa [25]): 20.2%; inhibition of growth at 100 µM (HeLa [26]): 97.4%
COc1c(Br)cc(C/C(=N\OCc2ccccc2)C(=O)NCCCCCNC(=O)/C(Cc2cc(Br)c(OC)c(Br)c2)=N/OCc2ccccc2)cc1Br |  | < 4.00 | < 4.00 | < 4.00 |  |  | < 4.00 |  |  |  |  |  |  |  |  |  |  |  | < 4.00 | < 4.00 | 
COc1c(Br)cc(C/C(=N\O)C(=O)NCCNCCNC(=O)/C(Cc2cc(Br)c(OC)c(Br)c2)=N/O)cc1Br |  | < 4.00 | < 4.00 | < 4.00 |  |  | < 4.00 |  |  |  |  |  |  |  |  |  |  |  | < 4.00 | < 4.00 | 
CO/N=C(\Cc1cc(Br)c(OC)c(Br)c1)C(=O)NCCCCCNC(=O)/C(Cc1cc(Br)c(OC)c(Br)c1)=N/OC |  | < 4.00 | < 4.00 | < 4.00 |  |  | < 4.00 |  |  |  |  |  |  |  |  |  |  |  | < 4.00 | < 4.00 | 
COc1c(Br)cc(C/C(=N\O)C(=O)NCCCCCNC(=O)/C(Cc2cc(Br)c(OC)c(Br)c2)=N/O)cc1Br |  | < 4.00 | < 4.00 | < 4.00 |  |  | < 4.00 |  |  |  |  |  |  |  |  |  |  |  | < 4.00 | < 4.00 | 
CO/N=C(\Cc1cc(Br)c(OC)c(Br)c1)C(=O)NCCNCCNC(=O)/C(Cc1cc(Br)c(OC)c(Br)c1)=N/OC | 26.7% | 4.97 | 4.55 | 4.59 | 21.3% | 4.8% | 4.59 | 0.1% | 11.4% | 96.9% | 22.1% | 20.3% | 95% | 20.2% | 23% | 11% | 96.9% | 46.2% | 4.51 | 4.57 | inhibition of growth at 25 µM (HeLa [27]): 80.1%; inhibition of growth at 1.25 µM [20]: 19.9%; inhibition of growth at 2.5 µM (MCF7 [21]): 23.9%; inhibition of growth at 50 µM [22]: 99%; inhibition of growth at 100 µM [24]: 95.6%; inhibition of growth at 10 µM (HeLa [25]): 24.5%; inhibition of growth at 100 µM (HeLa [26]): 97.1%
COc1c(Br)cc(C/C(=N\O)C(=O)NCCCN(C)CCCCN(C)CCCNC(=O)/C(Cc2cc(Br)c(OC)c(Br)c2)=N/O)cc1Br |  |  |  |  |  |  |  |  |  |  |  |  |  |  |  |  |  |  |  |  | pIC50 [28]: 5.80; pIC50 (MCF7 [29]): 5.80
COc1c(Br)cc(C/C(=N\O)C(=O)NCCCNCCCCNCCCNC(=O)/C(Cc2cc(Br)c(OC)c(Br)c2)=N/O)cc1Br |  | < 4.00 | < 4.00 | < 4.00 |  |  | < 4.00 |  |  |  |  |  |  |  |  |  |  |  | < 4.00 | < 4.00 | growth inhibition (GI) (HeLa [30]): tde; inhibition of growth at 5 µM (HeLa [31]): 90%
